The target of test [1] is Beta Secretase enzyme (BACE) (Homo sapiens, UniProt P56817). The test can be described thus: In vitro enzymatic BACE FRET (fluorescence resonance energy transfer) assay.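 Note: fluorescence read after 1 h with 50 nM quenched peptide substrate spanning the BACE cleavage site, in pH 4.2 acetate buffer containing 10% DMSO and nonionic detergent.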 Type of test: biochemical.
Test [2] has as its system Aβ40 in conditioned medium of cells stably expressing Amyloid Precursor Protein (APP). The test can be described thus: In vitro BACE cell-based assay (Aβ40 in conditioned medium, sandwich ELISA).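 Note: compounds added as a dilution series, secreted peptide quantified by europium time-resolved fluorescence readout, potency fitted from percent of control versus compound concentration.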 The following applies: Homo sapiens. On the technique in general: An ELISA detects its analyte on a solid surface through an enzyme-linked reagent.
The mark [3] stands for this setting: Table 1, read-out: BACE1 FRET assay.
The mark [4] stands for this setting: HEK293, Table 1, HEK cells, read-out: HEK cell assay.
The mark [5] stands for this setting: BACE enzyme assay, read-out: BACE1 FRET assay (IC50).
Where [6] appears, read: HEK293, HEK cells, cell-based assay, read-out: HEK cell assay (IC50).
Setting [7] is: BACE enzyme FRET assay, read-out: BACE1 FRET assay (IC50).

Where two headings read alike, the source gives them in different places.

Our source for the IC50 values is US8163909B2, “Substituted hydroxyethyl amine compounds as beta-secretase modulators and methods of use” (Amgen Inc., priority 2007, dated 2012).

Beta Secretase enzyme (BACE), sequence (P56817 46-501): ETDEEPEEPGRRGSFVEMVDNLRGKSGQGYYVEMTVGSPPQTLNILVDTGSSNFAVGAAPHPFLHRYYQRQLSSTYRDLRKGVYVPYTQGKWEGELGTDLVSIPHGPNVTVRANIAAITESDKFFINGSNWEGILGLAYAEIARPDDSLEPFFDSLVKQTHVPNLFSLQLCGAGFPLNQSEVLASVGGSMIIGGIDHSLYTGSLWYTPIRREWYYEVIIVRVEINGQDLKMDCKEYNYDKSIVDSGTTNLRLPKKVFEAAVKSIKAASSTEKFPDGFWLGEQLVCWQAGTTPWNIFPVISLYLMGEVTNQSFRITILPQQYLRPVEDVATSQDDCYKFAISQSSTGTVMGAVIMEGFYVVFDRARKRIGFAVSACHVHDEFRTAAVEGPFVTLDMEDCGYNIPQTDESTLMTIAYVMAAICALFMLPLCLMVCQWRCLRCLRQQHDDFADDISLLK

As for `COCC(=O)N[C@@H](Cc1ccccc1)[C@H](O)CN[C@H]1CC2(CCC2)Oc2ncc(CC3(C(F)(F)F)CC3)cc21` [compound 319], the IC50 in test [1] (setting [3]) was found to be 55.8 nM; in test [2] (setting [4]), 309 nM.

Turning to `CC(C)(C)Cc1cnc2c(c1)[C@@H](NC[C@@H](O)[C@H](Cc1cccc(F)c1)NC(=O)C(F)(F)Cl)CC1(CCC1)O2` [compound 108], the IC50 in test [1] (setting [5]) came out at 5.06 nM; in test [2] (setting [6]), 90.6 nM.

Regarding `CC(=O)N[C@@H](Cc1ccc(F)cc1)[C@H](O)CN[C@H]1CC2(CCC2)Oc2ncc(CC(C)(C)C(F)F)cc21` [compound 159], the IC50 in test [1] (setting [5]) was determined as 19.2 nM; in test [2] (setting [6]), 36.3 nM.

Turning to `CO[C@@H](C)C(=O)N[C@@H](Cc1ccc(F)cc1)[C@H](O)CN[C@H]1CC2(CCC2)Oc2c(F)cc(CC(C)(C)C)cc21` [compound 175], the IC50 in test [1] (setting [5]) turned out to be 17.2 nM; in test [2] (setting [6]), 229 nM.

For the molecule `CC(=O)CC(=O)N[C@@H](Cc1ccc2c(c1)OCO2)[C@H](O)CN[C@H]1CC2(CCC2)Oc2ncc(CC(C)(C)C)cc21` [compound 308], the IC50 in test [1] (setting [7]) turned out to be 24.4 nM; in test [2] (setting [6]) it was 20.9 nM.

Turning to `COCC(=O)N[C@@H](Cc1cccc(F)c1)[C@H](O)CN[C@H]1CC2(CCC2)Oc2ncc(CC(C)(C)F)cc21` [compound 284], the IC50 in test [1] (setting [7]) turned out to be 2.65 nM; in test [2] (setting [6]) it was 4.77 nM.

For the molecule `CO[C@H](C)C(=O)N[C@@H](Cc1cccc(F)c1)[C@H](O)CN[C@H]1CC2(CCC2)Oc2ncc(CC(C)(C)F)cc21` [compound 301], the IC50 in test [1] (setting [7]) is 7.81 nM; in test [2] (setting [6]) it was 6.99 nM.

On to `CO[C@H](C)C(=O)N[C@@H](Cc1cccc(F)c1)[C@H](O)CN[C@H]1CC2(CCC2)Oc2ncc(CC(C)(C)C)cc21` [compound 360], for which the IC50 in test [1] (setting [3]) was 3.11 nM; in test [2] (setting [4]), 4.82 nM.

As to `COCC(=O)N[C@@H](Cc1ccc2c(c1)OCO2)[C@H](O)CN[C@H]1CC2(CCC2)Oc2ncc(CC3(C(F)(F)F)CC3)cc21` [compound 313], the values for the IC50 in test [1] (setting [7]) and in test [2] (setting [6]) were 151 nM and 327 nM, respectively.

Regarding `COCC(=O)N[C@@H](Cc1ccc2c(c1)OC(C)(C)O2)[C@H](O)CN[C@H]1CC2(CCC2)Oc2ncc(CC(C)(C)C)cc21` [compound 293], the IC50 in test [1] (setting [7]) is 484 nM; in test [2] (setting [6]), 333 nM.

Take `CC(=O)NC(Cc1ccc(F)cc1)C(O)CNC1CC2(CC(O)C2)Oc2ncc(CC(C)C)cc21` [compound 251, N-((1S,2R)-1-((4-fluorophenyl)methyl)-2-hydroxy-3-(((1s,3S,4′S)-3-hydroxy-6′-(2-methylpropyl)-3′,4′-dihydrospiro[cyclobutane-1,2′-pyrano[2,3-b]pyridin]-4′-yl)amino)propyl)acetamide]: the IC50 turned out to be 6.34 nM in test [1] (setting [7]) and 11.8 nM in test [2] (setting [6]).

Regarding `COCC(=O)NC(Cc1ccc(F)c(F)c1)C(O)CNC1CC2(CC(O)C2)Oc2ncc(CC(C)(C)C)cc21` [compound 233, N-((1S,2R)-1-((3,4-difluorophenyl)methyl)-3-(((1s,3S,4′S)-6′-(2,2-dimethylpropyl)-3-hydroxy-3′,4′-dihydrospiro[cyclobutane-1,2′-pyrano[2,3-b]pyridin]-4′-yl)amino)-2-hydroxypropyl)-2-(methyloxy)acetamide], the figures for the IC50 in test [1] (setting [7]) and in test [2] (setting [6]) were 7.24 nM and 7.33 nM, respectively.

As for `CC(=O)NC(Cc1ccc(F)cc1)C(O)CNC1CC2(CC(C#N)C2)Oc2ncc(CC(C)(C)C)cc21` [compound 260, N-((1S,2R)-3-(((1s,3R,4′S)-3-cyano-6′-(2,2-dimethylpropyl)-3′,4′-dihydrospiro[cyclobutane-1,2′-pyrano[2,3-b]pyridin]-4′-yl)amino)-1-((4-fluorophenyl)methyl)-2-hydroxypropyl)acetamide], the IC50 in test [1] (setting [7]) worked out at 98.7 nM; in test [2] (setting [6]), 70.2 nM.

Consider `CO[C@H](C)C(=O)N[C@@H](Cc1ccc2c(c1)OCO2)[C@H](O)CN[C@H]1CC2(CCC2)Oc2ncc(C[C@@H](C)C(F)(F)F)cc21` [compound 342], for which the figures for the IC50 in test [1] (setting [3]) and in test [2] (setting [4]) were 175 nM and 343 nM, respectively.

Consider `C[C@@H](F)C(=O)N[C@@H](Cc1ccc2c(c1)OCO2)[C@H](O)CN[C@H]1CC2(CCC2)Oc2ncc(CC(C)(C)C)cc21` [Example 484, (2R)-N-((1S,2R)-1-(1,3-benzodioxol-5-ylmethyl)-3-(((4′S)-6′-(2,2-dimethylpropyl)-3′,4′-dihydrospiro[cyclobutane-1,2′-pyrano[2,3-b]pyridin]-4′-yl)amino)-2-hydroxypropyl)-2-fluoropropanamide], for which the IC50 in test [1] (Table 2, read-out: BACE1 FRET assay) came out at 29 nM; in test [2] (HEK293, Table 2, HEK cells, read-out: HEK cell assay), 56 nM.

With `CC(O)C(=O)N[C@@H](Cc1ccc(F)cc1)[C@H](O)CN[C@H]1CC2(CCC2)Oc2ncc(CC(C)(C)C)cc21` (stereo partly drawn) [compound 156], the IC50 in test [1] (setting [5]) came to 27.7 nM; in test [2] (setting [6]), 45.3 nM.

As for `CNc1nc(CC(C)(C)C)cc2c1OC1(CCC1)C[C@@H]2N(C)C[C@@H](O)[C@H](Cc1ccc(F)cc1)NC(=O)[C@@H](C)OC` [compound 138], the values for the IC50 in test [1] (setting [5]) and in test [2] (setting [6]) were 178 nM and 162 nM, respectively.

On to `CC(=O)NC(Cc1ccc(F)cc1)C(O)CNC1CC2(CC(CO)C2)Oc2ncc(CC(C)(C)C)cc21` [compound 259, N-((1S,2R)-3-(((1s,3R,4′S)-6′-(2,2-dimethylpropyl)-3-(hydroxymethyl)-3′,4′-dihydrospiro[cyclobutane-1,2′-pyrano[2,3-b]pyridin]-4′-yl)amino)-1-((4-fluorophenyl)methyl)-2-hydroxypropyl)acetamide], for which the IC50 in test [1] (setting [7]) is 16000 nM; in test [2] (setting [6]), 3330 nM.

For the molecule `COCC(=O)N[C@@H](Cc1ccccc1)[C@H](O)CN[C@H]1CC2(CCC2)Oc2ncc(CC(C)(C)CF)cc21` [compound 184], the IC50 came to 2.46 nM in test [1] (setting [5]) and 6.45 nM in test [2] (setting [6]).

Take `COCC(=O)N[C@@H](Cc1ccc2c(c1)OCO2)[C@H](O)CN[C@H]1CC2(CCC2)Oc2ncc(CCC(F)(F)F)cc21` [compound 195]: the IC50 turned out to be 754 nM in test [1] (setting [7]) and 621 nM in test [2] (setting [6]).

Regarding `COCC(=O)N[C@@H](Cc1cccc(F)c1)[C@H](O)CN[C@H]1CC2(CCC2)Oc2c1cc(CC(C)(C)C)nc2OCC(F)(F)F` [compound 140, N-((1S,2R)-3-(((4′S)-6′-(2,2-dimethylpropyl)-8′-((2,2,2-trifluoroethyl)oxy)-3′,4′-dihydrospiro[cyclobutane-1,2′-pyrano[2,3-c]pyridin]-4′-yl)amino)-1-((3-fluorophenyl)methyl)-2-hydroxypropyl)-2-(methyloxy)acetamide], the figures for the IC50 in test [1] (setting [5]) and in test [2] (setting [6]) were 7.75 nM and 115 nM, respectively.

For `COCC(=O)N[C@@H](Cc1cccc(F)c1)[C@H](O)CN[C@H]1CC2(CC(F)(F)C2)Oc2ncc(CC(C)(F)F)cc21` [compound 280], the IC50 in test [1] (setting [7]) is 18.9 nM; in test [2] (setting [6]), 175 nM.

Consider `CC(=O)N[C@@H](Cc1ccc2c(c1)OCO2)[C@H](O)CN[C@H]1CC2(CCC2)Oc2nc(F)c(CC(C)C)cc21` [compound 338], for which the IC50 in test [1] (setting [3]) was 109 nM; in test [2] (setting [4]), 252 nM.

Regarding `CC(=O)NC(Cc1ccc(F)cc1)C(O)CNC1CC2(CC(C(=O)O)C2)Oc2ncc(CC(C)(C)C)cc21` [compound 263, (1s,3R,4′S)-4′-(((2R,3S)-3-(acetylamino)-4-(4-fluorophenyl)-2-hydroxybutyl)amino)-6′-(2,2-dimethylpropyl)-3′,4′-dihydrospiro[cyclobutane-1,2′-pyrano[2,3-b]pyridine]-3-carboxylic acid], the IC50 turned out to be 10.7 nM in test [1] (setting [7]) and 976 nM in test [2] (setting [6]).

On to `CNc1nc(CC(C)(C)C)cc2c1OC1(CCC1)C[C@@H]2NC[C@@H](O)[C@H](Cc1ccccc1)NC(=O)COC` [compound 112], for which the IC50 in test [1] (setting [5]) was 30.4 nM; in test [2] (setting [6]), 8.93 nM.

For `CC(=O)C(=O)N[C@@H](Cc1ccc2c(c1)OCO2)[C@H](O)CN[C@H]1CC2(CCC2)Oc2ncc(CC(C)(C)C)cc21` [compound 307], the results for the IC50 in test [1] (setting [7]) and in test [2] (setting [6]) were 31.3 nM and 68.3 nM, respectively.

In the case of `COCC(=O)NC(Cc1ccc2c(c1)OCO2)C(O)CNC1CC2(CC(C)C2)Oc2ncc(CC(C)C)cc21` [compound 133, N-((1S,2R)-1-(1,3-benzodioxol-5-ylmethyl)-2-hydroxy-3-(((1s,3R,4′S)-3-methyl-6′-(2-methylpropyl)-3′,4′-dihydrospiro[cyclobutane-1,2′-pyrano[2,3-b]pyridin]-4′-yl)amino)propyl)-2-(methyloxy)acetamide], the IC50 in test [1] (setting [5]) is 39.8 nM; in test [2] (setting [6]), 143 nM.

For the molecule `CO[C@@H](C)C(=O)N[C@@H](Cc1ccc(F)cc1)[C@H](O)CN[C@H]1CC2(CCC2)Oc2ncc(CC(C)(C)C)cc21` [compound 155], the IC50 in test [1] (setting [5]) worked out at 40.1 nM; in test [2] (setting [6]), 76 nM.

With `COCC(=O)NC(Cc1ccc2c(c1)OCO2)C(O)CNC1CC2(CC(O)C2)Oc2ccc(CC(C)(C)C)cc21` [compound 267, N-((1S,2R)-1-(1,3-benzodioxol-5-ylmethyl)-3-(((2s,3′S,4S)-6-(2,2-dimethylpropyl)-3′-hydroxy-3,4-dihydrospiro[chromene-2,1′-cyclobutan]-4-yl)amino)-2-hydroxypropyl)-2-(methyloxy)acetamide], the values for the IC50 in test [1] (setting [7]) and in test [2] (setting [6]) were 31.8 nM and 31.4 nM, respectively.

`CO[C@H](C)C(=O)N[C@@H](Cc1ccc2c(c1)OCO2)[C@H](O)CN[C@H]1CC2(CCC2)Oc2ncc([C@H](F)C(C)(C)C)cc21` [compound 330]: the IC50 in test [1] (setting [3]) was 22.1 nM; in test [2] (setting [4]) it was 43.9 nM.

As for `CO[C@@H](C)C(=O)N[C@@H](Cc1ccc2c(c1)OC(F)(F)O2)[C@H](O)CN[C@H]1CC2(CCC2)Oc2ncc(CC(C)(C)C)cc21` [compound 296], the values for the IC50 in test [1] (setting [7]) and in test [2] (setting [6]) were 102 nM and 575 nM, respectively.

`COCC(=O)N[C@@H](CC1CC1)[C@H](O)CN[C@H]1CC2(CCC2)Oc2ncc(CC(C)(C)C)cc21` [compound 213]: the IC50 in test [1] (setting [7]) worked out at 57 nM; in test [2] (setting [6]) it was 78.7 nM.

On to `CC(=O)N[C@@H](Cc1ccc(F)cc1)[C@H](O)CN[C@H]1CC2(CCC2)Oc2ncc(OC(C)(F)F)cc21` [compound 146], for which the IC50 worked out at 421 nM in test [1] (setting [5]) and 1250 nM in test [2] (setting [6]).
